Values after ≈ are worked out from the molar mass of the structure shown. Where only a bound is given, the exact number is not on record here.

The conditions of the series: buffer; pH 7.4; 200.0 µM.
The term kinetic solubility denotes the concentration staying in solution when a stock, usually in DMSO, is diluted into the medium. In the case of `O=C(Nc1cc(=O)[nH]c(=O)[nH]1)c1cccc(C(F)(F)F)c1`, the kinetic solubility is above 44.9 µg/mL.
Turning to `O=C(COc1ccc(Br)cc1)OCC(=O)N1CCOCC1`, the kinetic solubility was above 53.7 µg/mL.
Then `CCn1ncc(-c2ccnc3cc(C(=O)O)nn23)c1C`, with above 40.7 µg/mL.
Molecule `CCCC(=O)OCCNc1cc(SCCC(=O)OC)c2nonc2c1[N+](=O)[O-]` returned a solubility (kinetic) of 19.3 µg/mL (≈ 46.8 µM).
Then `COc1ccc(CCOC(=O)c2ccc(NC(=O)CC#N)cc2)cc1`, with 4.1 µg/mL (≈ 12.1 µM); and `O=S(=O)(c1ccc(=S)[nH]c1)N1CCOCC1`, with 21.6 µg/mL (≈ 83 µM); and `Cc1ccc(OCC(=O)NCCNC(=O)c2ccncc2)cc1`, with 45.1 µg/mL (≈ 144 µM).
Then `Cc1ccc(S(=O)(=O)N2CC(O)CC2C(=O)OCC(=O)Nc2ccc([N+](=O)[O-])cc2C(F)(F)F)cc1C` (stereo unspecified), with 76.5 µg/mL (≈ 140 µM); and `CC(OC(=O)c1ccc(Cl)cc1O)C(=O)NCCC1=CCCCC1` (stereo unspecified), with 32.9 µg/mL (≈ 93.5 µM); and `CNC(=S)NC(CC(=O)OC)c1ccc2c(c1)OCO2` (stereo unspecified), with 41.8 µg/mL (≈ 141 µM).
The value for `CN1CCCN(C(=O)CNC(=O)Cc2ccccc2)CC1` was above 43.4 µg/mL; that for `COc1ccc(C(=O)Nc2cccc3nc(C)ccc23)cc1OC` was 16.6 µg/mL (≈ 51.5 µM).
With `O=C(CSc1nc2c(c(=O)[nH]1)CCC2)Nc1cccc(F)c1`, the kinetic solubility amounted to 12.2 µg/mL (≈ 38.2 µM).
Molecule `CCOC(=O)NC(=O)c1cn(-c2ccc(OC)cc2)c(=O)[nH]c1=O` came in with a solubility (kinetic) of 9.1 µg/mL (≈ 27.3 µM).
For `CN1CC(C(=O)c2ccc(Cl)cc2)C(c2ccccc2F)C1` (stereo unspecified), the kinetic solubility is above 47.7 µg/mL.
On to `CN(CC(=O)NC(=O)Nc1ccccc1F)Cc1ccccc1`, for which the kinetic solubility stood at 4.7 µg/mL (≈ 14.9 µM).
The value for `CSCCCN1CCCC(CO)(Cc2ccccc2F)C1` (stereo unspecified) was above 46.7 µg/mL; that for `O=C(COC(=O)c1ccc(O)cc1O)Nc1ccc(Cl)cn1` was 46.5 µg/mL (≈ 144 µM).
For the molecule `COCc1cc(=O)[nH]c(-c2ccccc2OC(F)(F)F)n1`, the solubility (kinetic) was above 45 µg/mL.
As to `COC(=O)c1ccc(CN2CCc3ccccc32)cc1`, the kinetic solubility worked out at 1 µg/mL (≈ 3.74 µM).
Molecule `COCC(C)NC(=O)C1c2ccccc2Oc2ccccc21` (stereo unspecified) came in with a kinetic solubility of 40.1 µg/mL (≈ 135 µM).
In the case of `NC(=O)COc1ccc2oc(-c3ccccc3)cc(=O)c2c1`, the solubility (kinetic) was determined as 1.1 µg/mL (≈ 3.73 µM).
In turn, `CN(C(=O)c1ccc2c(c1)CCO2)C(C)(C)C` yielded a kinetic solubility of 23.9 µg/mL (≈ 102 µM).
Consider `N/C(=N\OC(=O)c1ccccc1)c1ccncc1`, for which the solubility (kinetic) turned out to be 34.8 µg/mL (≈ 144 µM).
Turning to `COCc1cc(=O)[nH]c(-c2ccc(C(F)(F)F)cc2)n1`, the solubility (kinetic) is above 42.6 µg/mL.
For `Cn1c(=O)n(C)c2cc(NC(=O)c3ccc(F)cc3)c(Br)cc21`, the solubility (kinetic) was 8.2 µg/mL (≈ 21.7 µM).
`Cn1c(=O)n(C)c2cc([N+](=O)[O-])c(N3CCNCC3)cc21` yielded a kinetic solubility above 43.7 µg/mL.
`CCC(C)[C@H](NC(=O)NCc1cccnc1)C(=O)OC` (stereo partly specified) gave a kinetic solubility of 41.5 µg/mL (≈ 149 µM).
Then `COc1ccc(OCC(=O)OCC(=O)Nc2cc(S(=O)(=O)N3CCOCC3)ccc2Cl)cc1`, with 62.5 µg/mL (≈ 125 µM); and `Cc1nc(Cl)c(Cl)n1CCOc1ccccc1`, with above 40.7 µg/mL; and `O=C(NCc1ccccc1Cl)c1cc(C(=O)C2CC2)c[nH]1`, with below 0.3 µg/mL.
As to `CC(C)COP(=O)(OCC(C)C)C(O)c1ccc(N(C)C)cc1` (stereo unspecified), the solubility (kinetic) was above 51.5 µg/mL.
`Cc1cc(C)c2c(ccc3cccc[n+]32)c1.[O-][Cl+3]([O-])([O-])[O-]` gave a kinetic solubility above 46.2 µg/mL.
Then `Cc1ccc(NC(=O)NCc2cccnc2)cc1`, with above 36.2 µg/mL.
Molecule `Cc1nc(Cl)sc1C(=O)Nc1cc(F)cc(F)c1` gave a kinetic solubility of 20.7 µg/mL (≈ 71.7 µM).
The value for `Nc1ncnc2c1ncn2[C@@H]1O[C@H](CO)[C@@H](O)[C@@H]1O` was above 40.1 µg/mL; that for `Cc1csc(Nc2nc(N)c(C(=O)Nc3cc(Cl)ccc3F)o2)n1` was 3.1 µg/mL (≈ 8.43 µM); that for `CC(C)CCn1cnc2c(oc3nc4c(cc32)CCCC4)c1=O` was 43 µg/mL (≈ 138 µM).
Then `Cc1onc(-c2ccccc2)c1CNC(=O)Nc1ccc(C(F)(F)F)cc1`, with 0.4 µg/mL (≈ 1.07 µM).
The value for `CC(=O)Nc1ccc(N/C=C/C(=O)c2ccc(C)cc2)cc1` was 3.2 µg/mL (≈ 10.9 µM).
Take `Cc1ccc(CCN2CC(C(=O)NCCC(C)C)CC2=O)cc1` (stereo unspecified): the kinetic solubility is 45.7 µg/mL (≈ 144 µM).
`Cc1ccc(CN(C)Cc2cc(=O)oc3cc(C)c(Cl)cc23)cc1` registered a solubility (kinetic) below 0.7 µg/mL.
Then `Cc1ccc(C)c(C(C)NC(=O)C2CCCC2)c1` (stereo unspecified), with 33.2 µg/mL (≈ 135 µM); and `Cc1ccc(C)c(NC(=O)CSc2cccc3cccnc23)c1`, with 2.2 µg/mL (≈ 6.82 µM).
`CC(=O)OC(C(=O)NC1CCCCC1)c1ccccc1F` (stereo unspecified) had a kinetic solubility above 44 µg/mL.
The molecule `Cc1ccc(S(=O)(=O)NC2CC2)cc1[N+](=O)[O-]` showed a solubility (kinetic) above 38.4 µg/mL.
The value for `CCOC(=O)N1CCN(CC(=O)Nc2ccc(F)cc2)CC1` was above 46.4 µg/mL; that for `CCCCc1ccc(NC(=S)N2CCCC2)cc1` was 9.2 µg/mL (≈ 35.1 µM); that for `O=c1nc(SCc2cccc(C(F)(F)F)c2)nc2ccccn12` was 7 µg/mL (≈ 20.8 µM).
In turn, `CC(=O)c1ccc(N=C2SCCCN2C(=O)C2CCCCC2)cc1` displayed a kinetic solubility of 42.2 µg/mL (≈ 123 µM).
Take `CC1c2ccsc2CCN1C(=O)NC(=O)c1ccc(Cl)cc1` (stereo unspecified): the solubility (kinetic) came to 1.8 µg/mL (≈ 5.38 µM).

(Values after PubChem BioAssay AID1996.)
